Experimental data taken from ChEMBL document CHEMBL1201862, “PubChem BioAssay data set” (2004).
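Compound exposure: 48 hours, 5 concentrations, 96-well plates. GI50 marks 50% less growth.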 Active and inactive are the calls of the source. Rule as the data show it: active = GI50 up to about 1.1 µM and inactive = higher.

How the values were obtained:
Experiment in all cases: NCI anticancer screen, dose series, 48 h
CAKI-1 = system: CAKI-1
NCI-H522 = system: NCI-H522
A498 = system: A498
K562 = system: K562
RXF 393 = system: RXF 393
DMS-273 = system: DMS-273
SK-OV-3 = system: SK-OV-3
OVCAR-8 = system: OVCAR-8
IGROV-1 = system: IGROV-1
NCI-H226 = system: NCI-H226
SF-539 = system: SF-539
RPMI-8226 = system: RPMI-8226
SN12C = system: SN12C
A549 = system: A549
LXFL 529 = system: LXFL 529
HCT-15 = system: HCT-15
LOX IMVI = system: LOX IMVI
UACC-257 = system: UACC-257
HT-29 = system: HT-29
SK-MEL-28 = system: SK-MEL-28
UO-31 = system: UO-31
COLO 205 = system: COLO 205
KM12 = system: KM12
ACHN = system: ACHN
CCRF-CEM = system: CCRF-CEM
DLD-1 = system: DLD-1
SW-620 = system: SW-620
SK-MEL-5 = system: SK-MEL-5
NCI-H23 = system: NCI-H23
786-0 = system: 786-0
U-251 = system: U-251
HOP-18 = system: HOP-18
MOLT-4 = system: MOLT-4
HCT-116 = system: HCT-116
SK-MEL-2 = system: SK-MEL-2
OVCAR-5 = system: OVCAR-5
OVCAR-4 = system: OVCAR-4
NCI-H460 = system: NCI-H460
SF-268 = system: SF-268
HL-60 = system: HL-60
UACC-62 = system: UACC-62
SNB-75 = system: SNB-75
SF-295 = system: SF-295
HOP-92 = system: HOP-92
M19-MEL = system: M19-MEL
HOP-62 = system: HOP-62
SR = system: SR
TK-10 = system: TK-10
DMS-114 = system: DMS-114
M14 = system: M14
Malme-3M = system: Malme-3M
KM-20L2 = system: KM-20L2
EKVX = system: EKVX
SNB-19 = system: SNB-19
SNB-78 = system: SNB-78
HCC 2998 = system: HCC 2998
OVCAR-3 = system: OVCAR-3

COc1ccc(C2S/C(=C\c3ccc(O)cc3)C(=O)N2NC(=O)Cc2ccccc2)cc1 (stereo not given)
GI50 (CAKI-1): > 100 µM (inactive)
GI50 (NCI-H522): > 100 µM (inactive)
GI50 (A498): > 100 µM (inactive)
GI50 (K562): > 100 µM (inactive)
GI50 (RXF 393): > 100 µM (inactive)
GI50 (DMS-273): > 100 µM (inactive)
GI50 (SK-OV-3): > 100 µM (inactive)
GI50 (OVCAR-8): > 100 µM (inactive)
GI50 (IGROV-1): > 100 µM (inactive)
GI50 (NCI-H226): > 100 µM (inactive)
GI50 (SF-539): > 100 µM (inactive)
GI50 (RPMI-8226): > 100 µM (inactive)
GI50 (SN12C): > 100 µM (inactive)
GI50 (A549): > 100 µM (inactive)
GI50 (LXFL 529): > 100 µM (inactive)
GI50 (HCT-15): > 100 µM
GI50 (LOX IMVI): > 100 µM (inactive)
GI50 (UACC-257): > 100 µM (inactive)
GI50 (HT-29): > 100 µM (inactive)
GI50 (SK-MEL-28): > 100 µM (inactive)
GI50 (UO-31): > 100 µM (inactive)
GI50 (COLO 205): > 100 µM (inactive)
GI50 (KM12): > 100 µM (inactive)
GI50 (ACHN): > 100 µM (inactive)
GI50 (CCRF-CEM): > 100 µM (inactive)
GI50 (DLD-1): > 100 µM (inactive)
GI50 (SW-620): > 100 µM (inactive)
GI50 (SK-MEL-5): > 100 µM (inactive)
GI50 (NCI-H23): > 100 µM (inactive)
GI50 (786-0): > 100 µM (inactive)
GI50 (U-251): > 100 µM (inactive)
GI50 (HOP-18): > 100 µM (inactive)
GI50 (MOLT-4): > 100 µM (inactive)
GI50 (HCT-116): > 100 µM (inactive)
GI50 (SK-MEL-2): > 100 µM (inactive)
GI50 (OVCAR-5): > 100 µM (inactive)
GI50 (OVCAR-4): > 100 µM (inactive)
GI50 (NCI-H460): > 100 µM (inactive)
GI50 (SF-268): > 100 µM (inactive)
GI50 (HL-60): > 100 µM (inactive)
GI50 (UACC-62): > 100 µM (inactive)
GI50 (SNB-75): 90.8 µM (inactive)
GI50 (SF-295): > 100 µM (inactive)
GI50 (HOP-92): > 100 µM (inactive)
GI50 (M19-MEL): > 100 µM (inactive)
GI50 (HOP-62): > 100 µM (inactive)
GI50 (SR): > 100 µM (inactive)
GI50 (TK-10): > 100 µM (inactive)
GI50 (DMS-114): > 100 µM (inactive)
GI50 (M14): > 100 µM (inactive)
GI50 (Malme-3M): > 100 µM (inactive)

CCNC1=Nc2ccccc2-n2c(nn3nc4ccccc4c23)N1CC
GI50 (NCI-H522): 72.4 µM (inactive)
GI50 (A498): > 100 µM (inactive)
GI50 (K562): 66.7 µM (inactive)
GI50 (RXF 393): > 100 µM (inactive)
GI50 (KM-20L2): > 100 µM (inactive)
GI50 (DMS-273): > 100 µM (inactive)
GI50 (OVCAR-8): > 100 µM (inactive)
GI50 (IGROV-1): > 100 µM (inactive)
GI50 (NCI-H226): > 100 µM (inactive)
GI50 (SF-539): > 100 µM (inactive)
GI50 (RPMI-8226): 97.1 µM (inactive)
GI50 (SN12C): 77.4 µM (inactive)
GI50 (A549): > 100 µM (inactive)
GI50 (LXFL 529): > 100 µM (inactive)
GI50 (HCT-15): > 100 µM
GI50 (LOX IMVI): > 100 µM (inactive)
GI50 (UACC-257): > 100 µM (inactive)
GI50 (HT-29): 82.6 µM (inactive)
GI50 (SK-MEL-28): 94.2 µM (inactive)
GI50 (EKVX): > 100 µM (inactive)
GI50 (COLO 205): > 100 µM (inactive)
GI50 (KM12): 29.6 µM (inactive)
GI50 (ACHN): > 100 µM (inactive)
GI50 (CCRF-CEM): 80 µM (inactive)
GI50 (DLD-1): > 100 µM (inactive)
GI50 (SW-620): > 100 µM (inactive)
GI50 (SK-MEL-5): > 100 µM (inactive)
GI50 (NCI-H23): > 100 µM (inactive)
GI50 (786-0): > 100 µM (inactive)
GI50 (U-251): > 100 µM (inactive)
GI50 (HOP-18): > 100 µM (inactive)
GI50 (MOLT-4): 30.2 µM (inactive)
GI50 (HCT-116): > 100 µM (inactive)
GI50 (OVCAR-5): > 100 µM (inactive)
GI50 (OVCAR-4): > 100 µM (inactive)
GI50 (NCI-H460): > 100 µM (inactive)
GI50 (SF-268): > 100 µM (inactive)
GI50 (HL-60): 36.6 µM (inactive)
GI50 (UACC-62): > 100 µM (inactive)
GI50 (SNB-75): > 100 µM (inactive)
GI50 (SF-295): 37.3 µM (inactive)
GI50 (HOP-92): > 100 µM (inactive)
GI50 (M19-MEL): > 100 µM (inactive)
GI50 (HOP-62): > 100 µM (inactive)
GI50 (SNB-19): > 100 µM (inactive)
GI50 (SR): 34.8 µM (inactive)
GI50 (DMS-114): 89.3 µM (inactive)
GI50 (M14): > 100 µM (inactive)

CSc1ccc2c(cc1=O)[C@@H](NC(=O)c1ccc(Cl)cc1)CCc1cc(O)c(O)c(O)c1-2
GI50 (CAKI-1): 45.9 µM (inactive)
GI50 (NCI-H522): 15.4 µM (inactive)
GI50 (SNB-78): > 100 µM (inactive)
GI50 (A498): > 100 µM (inactive)
GI50 (K562): 18.2 µM (inactive)
GI50 (RXF 393): > 100 µM (inactive)
GI50 (KM-20L2): > 100 µM (inactive)
GI50 (DMS-273): 50.6 µM (inactive)
GI50 (SK-OV-3): > 100 µM (inactive)
GI50 (OVCAR-8): 50 µM (inactive)
GI50 (IGROV-1): 22.1 µM (inactive)
GI50 (NCI-H226): > 100 µM (inactive)
GI50 (SF-539): 29.8 µM (inactive)
GI50 (RPMI-8226): 23.3 µM (inactive)
GI50 (SN12C): 24.5 µM (inactive)
GI50 (A549): 53 µM (inactive)
GI50 (LXFL 529): 33.3 µM (inactive)
GI50 (HCT-15): 21.6 µM
GI50 (LOX IMVI): 18.6 µM (inactive)
GI50 (UACC-257): > 100 µM (inactive)
GI50 (HT-29): > 100 µM (inactive)
GI50 (SK-MEL-28): 80 µM (inactive)
GI50 (UO-31): > 100 µM (inactive)
GI50 (EKVX): 69.2 µM (inactive)
GI50 (COLO 205): 62.5 µM (inactive)
GI50 (KM12): 40.4 µM (inactive)
GI50 (ACHN): > 100 µM (inactive)
GI50 (CCRF-CEM): 28.1 µM (inactive)
GI50 (DLD-1): 26.1 µM (inactive)
GI50 (SW-620): 19.5 µM (inactive)
GI50 (SK-MEL-5): 50.4 µM (inactive)
GI50 (NCI-H23): 32.1 µM (inactive)
GI50 (786-0): > 100 µM (inactive)
GI50 (U-251): 21.8 µM (inactive)
GI50 (HOP-18): > 100 µM (inactive)
GI50 (MOLT-4): 26.3 µM (inactive)
GI50 (HCT-116): 18.2 µM (inactive)
GI50 (SK-MEL-2): > 100 µM (inactive)
GI50 (OVCAR-5): > 100 µM (inactive)
GI50 (OVCAR-4): 29.6 µM (inactive)
GI50 (NCI-H460): 43.5 µM (inactive)
GI50 (SF-268): > 100 µM (inactive)
GI50 (HL-60): 27.5 µM (inactive)
GI50 (UACC-62): 22.5 µM (inactive)
GI50 (SNB-75): 27.7 µM (inactive)
GI50 (SF-295): 38.5 µM (inactive)
GI50 (HOP-92): > 100 µM (inactive)
GI50 (M19-MEL): 31.1 µM (inactive)
GI50 (HOP-62): 57.4 µM (inactive)
GI50 (HCC 2998): > 100 µM (inactive)
GI50 (SNB-19): 49.5 µM (inactive)
GI50 (OVCAR-3): 23.2 µM (inactive)
GI50 (TK-10): > 100 µM (inactive)
GI50 (DMS-114): 32.4 µM (inactive)
GI50 (M14): 34.7 µM (inactive)
GI50 (Malme-3M): > 100 µM (inactive)
